Legend:
[1] = molecular target: PTPμ (Homo sapiens (Human), UniProt P28827); assay: PTP selectivity panel, pNPP; assay type: biochemical, mammalian; details: pNPP at Km
[2] = molecular target: SHP2 (Homo sapiens (Human), UniProt Q06124); assay: SHP2-catalyzed hydrolysis of p-nitrophenyl phosphate (pNPP); assay type: biochemical
Experimental: Libraries 11a-d were screened at ˜5 μM for SHP2 inhibitors without further purification. The ability of the library components to inhibit the SHP2-catalyzed hydrolysis of p-nitrophenyl phosphate (pNPP) was evaluated at pH 7.0 and 25° C. More particularly, the phosphatase activity of SHP2 was assayed using p-nitrophenyl phosphate (pNPP) as a substrate at 25° C. in 50 mM 3,3-dimethylglutarate buffer, pH 7.0, containing 1 mM EDTA with an ionic strength of […] adjusted by NaCl. The libraries were screened in a 96-well format at 5 μM compound concentration. […] The nonenzymatic hydrolysis of pNPP was corrected by measuring the control without the addition of enzyme. The amount of product p-nitrophenol was determined from the absorbance at 405 nm detected by a Spectra MAX340 microplate spectrophotometer (Molecular Devices, Sunnyvale, Calif.) using a molar extinction coefficient of 18,000 M^−1 cm^−1. […] IC50 values for selected resynthesized and purified hits were calculated by fitting the absorbance at 405 nm versus inhibitor concentration to the following equation: AI/A0=IC50/(IC50+[I]) where AI is the absorbance at 405 nm of the sample in the presence of the inhibitor; A0 is the absorbance at 405 nm in the absence of inhibitor; and [I] is the concentration of the inhibitor.

[3] = tested on: H1975 cells; assay: H1975 cell proliferation (MTT assay); assay type: cell-based; details: Homo sapiens, NCI-H1975, 48 h, treatment for 2 days
Experimental: Particularly, human non-small cell lung carcinoma cell line H1975 was obtained from the American Tissue Culture Collection and cultured at 37° C. and 5% CO2 in RPMI-1640 (Corning, Corning, N.Y.) supplemented with 10% fetal bovine serum. 3×10^3 cells were seeded in each well of 96-well plates. After treatment with compound 11a-1 for 2 days, cells were incubated with 50 μg/ml MTT (3-(4,5-Dimethylthiazol-2-yl)-2,5-diphenyltetrazolium bromide (Sigma, St. Louis, Mo.) for 3-4 hours. Then, the culture medium was removed, DMSO was added to dissolve the formazan crystals. Wells containing only media were used for background correction. The optical density was measured spectrophotometrically at 540 nm.

[4] = tested on: 32D myeloid cells bearing KITD814V; assay: Proliferation (thymidine incorporation) of 32D myeloid cells bearing KITD814V; assay type: cell-based
Experimental: FIG. 8A is a graph depicting 32D myeloid cells bearing wild-type (WT) KIT or KITD814V that were starved of serum and growth factors for 6 hours and subjected to proliferation assay in the presence or absence of the indicated concentration of II-B08 or 11a-1 as analyzed in Example 6. Assay was performed in the presence of IL-3 (10 ng/mL) for cells bearing WT KIT and in the absence of growth factors for cells bearing oncogenic KITD814V. Bars denote the mean thymidine incorporation (CPM±SEM) consolidated from four independent experiments performed in triplicate. *p<0.05.
To further determine the efficacy of compound 11a-1, the growth of oncogenic KITD814V bearing 32D myeloid cells in the presence of II-B08 and 11a-1 were compared. Specifically, the wild-type (WT) KIT and KITD814V were inserted into the bicistronic retroviral vector, MIEG3, upstream of the internal ribosome entry site (IRES) and the enhanced green fluorescent protein (EGFP) gene as previously described in Mali et al., 2012. Retroviral supernatants for transduction of 32D myeloid cells and primary hematopoietic stem and progenitor cells were generated using Phoenix ecotropic packaging cell line transfected with retroviral vector plasmids using a calcium phosphate transfection kit (Invitrogen, Carlsbad, Calif.). Supernatants were collected 48 hours after transfection and filtered through 0.45 μm membranes. 32D myeloid cells were infected twice at 24-hour intervals with 2 mL high/titer virus supernatant in the presence of 10 ng/mL IL-3 and 8 μg/mL polybrene. Forty-eight hours after infection, 32D cells expressing WT KIT or KITD814V receptors were sorted to homogeneity based on EGFP expression and utilized to perform all of the experiments.

[5] = tested on: Paxillin (pY118); assay: Paxillin (pY118) phosphorylation in H1975 cells (immunoblot); assay type: cell-based, human
Experimental: For biochemical studies, H1975 cells were serum-starved overnight followed by treatment with vehicle or compound 11a-1 for 3 hours, and then either left unstimulated or stimulated with 5 ng/ml EGF (Sigma, St. Louis, Mo.) for 60 minutes. Lysates were then resolved by SDS-PAGE and the protein phosphorylation levels were detected by immunoblot analysis. Specifically, cells were lysed in lysis buffer (1.0% Nonidet P-40, 50 mM Tris-HCl (pH 7.4), 150 mM NaCl, 5 mM EDTA, 2 mM NaVO3, 10 mM NaF) plus a protease inhibitor mixture available from Roche (Basel, Switzerland) and centrifuged at 10,000 rpm for 5 minutes at 4° C. Supernatants were collected and protein concentration was determined using the BCA protein assay (ThermoFisher Scientific, Rockford, Ill.). Equal amount of protein extracts were mixed with gel loading buffer and separated on SDS-PAGE. After electrophoresis, the proteins were transferred onto nitrocellulose membranes and nonspecific binding was blocked with 5% nonfat dry milk in Tris-buffered saline containing 0.1% Tween-20 (TBS-T). Membranes were then probed with various antibodies overnight at 4° C. on a rocker. After incubation, membranes were washed with TBS-T and incubated with appropriate horseradish peroxidase (HRP)-conjugated secondary antibodies for 1 hour at room temperature. Finally, the proteins on the membranes were detected using SuperSignal West Dura Luminol/Enhancer solution (ThermoFisher Scientific, Rockford, Ill.) and membranes were analyzed using Bio-Rad ChemiDoc XRS Imaging System.

[6] = molecular target: SHP1 (Homo sapiens (Human), UniProt P29350); assay: PTP selectivity panel, pNPP; assay type: biochemical, mammalian
Chain of SHP1 (P29350 whole entry): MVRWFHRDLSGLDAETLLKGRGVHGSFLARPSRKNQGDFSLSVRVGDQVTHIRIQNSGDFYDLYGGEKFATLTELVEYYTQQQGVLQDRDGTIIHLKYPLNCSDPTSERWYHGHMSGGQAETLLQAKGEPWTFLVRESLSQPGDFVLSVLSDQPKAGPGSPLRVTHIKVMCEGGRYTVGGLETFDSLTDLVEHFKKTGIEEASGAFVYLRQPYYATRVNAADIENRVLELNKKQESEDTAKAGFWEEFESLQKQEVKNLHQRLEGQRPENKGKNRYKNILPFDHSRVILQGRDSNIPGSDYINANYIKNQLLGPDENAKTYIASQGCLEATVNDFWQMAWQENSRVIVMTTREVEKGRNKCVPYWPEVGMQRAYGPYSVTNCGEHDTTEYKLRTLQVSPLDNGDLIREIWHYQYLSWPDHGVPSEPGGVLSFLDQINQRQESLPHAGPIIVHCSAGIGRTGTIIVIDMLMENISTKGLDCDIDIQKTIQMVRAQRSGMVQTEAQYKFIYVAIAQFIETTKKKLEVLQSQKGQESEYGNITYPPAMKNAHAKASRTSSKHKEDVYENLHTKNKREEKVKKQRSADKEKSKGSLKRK

[7] = molecular target: VHZ (Homo sapiens (Human), UniProt Q9BVJ7); assay: PTP selectivity panel, pNPP; assay type: biochemical, mammalian; details: pNPP at Km
Chain of VHZ (Q9BVJ7 whole entry, species assumed): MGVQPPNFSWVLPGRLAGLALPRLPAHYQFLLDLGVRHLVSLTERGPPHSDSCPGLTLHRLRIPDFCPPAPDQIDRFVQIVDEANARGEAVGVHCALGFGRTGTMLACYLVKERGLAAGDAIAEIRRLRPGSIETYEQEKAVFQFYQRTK

[8] = tested on: SKBR3 cells; assay: SKBR3 breast cancer cell growth in Matrigel; assay type: cell-based
Experimental: Approximately 300,000 SKBR3 cells were seeded into 150 μl of growth factor reduced Matrigel (Corning, Corning, N.Y.) in 35 mm dishes. To 3 dishes for each condition, 2 mL of media containing either 10 μl vehicle (DMSO) or compound 11a-1 at the indicated concentration was then added. Every 24 hours, the cells were imaged with a NIKON SMZ1500 stereomicroscoppe. The cross-sectional area of individual colonies from each image were measured using Adobe Photoshop software. After 4 days, the cells were recovered from the Matrigel and lysed in PLC buffer containing protease inhibitor cocktail (Cat. No. P8340; Sigma-Aldrich, St. Louis, Mo.). Lysates were then resolved by SDS-PAGE and relative levels of the indicated proteins were detected by immunoblot analysis.

Chain of SHP2 (Q06124 whole entry, looked up): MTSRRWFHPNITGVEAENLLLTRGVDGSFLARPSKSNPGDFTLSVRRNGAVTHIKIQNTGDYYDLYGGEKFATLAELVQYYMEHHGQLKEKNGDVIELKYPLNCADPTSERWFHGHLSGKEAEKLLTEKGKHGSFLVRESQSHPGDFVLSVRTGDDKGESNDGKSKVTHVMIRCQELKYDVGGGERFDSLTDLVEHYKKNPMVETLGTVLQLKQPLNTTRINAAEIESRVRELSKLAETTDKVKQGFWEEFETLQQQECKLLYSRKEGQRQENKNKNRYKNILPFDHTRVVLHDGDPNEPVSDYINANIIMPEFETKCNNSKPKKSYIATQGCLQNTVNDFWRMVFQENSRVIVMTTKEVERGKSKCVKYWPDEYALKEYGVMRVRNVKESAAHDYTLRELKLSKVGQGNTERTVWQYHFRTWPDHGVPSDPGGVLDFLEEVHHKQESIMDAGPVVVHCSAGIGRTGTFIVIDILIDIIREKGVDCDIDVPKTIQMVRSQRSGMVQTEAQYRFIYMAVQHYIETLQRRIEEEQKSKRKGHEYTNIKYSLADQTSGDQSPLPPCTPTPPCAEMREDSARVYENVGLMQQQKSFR
Chain of PTPμ (P28827 21-1452): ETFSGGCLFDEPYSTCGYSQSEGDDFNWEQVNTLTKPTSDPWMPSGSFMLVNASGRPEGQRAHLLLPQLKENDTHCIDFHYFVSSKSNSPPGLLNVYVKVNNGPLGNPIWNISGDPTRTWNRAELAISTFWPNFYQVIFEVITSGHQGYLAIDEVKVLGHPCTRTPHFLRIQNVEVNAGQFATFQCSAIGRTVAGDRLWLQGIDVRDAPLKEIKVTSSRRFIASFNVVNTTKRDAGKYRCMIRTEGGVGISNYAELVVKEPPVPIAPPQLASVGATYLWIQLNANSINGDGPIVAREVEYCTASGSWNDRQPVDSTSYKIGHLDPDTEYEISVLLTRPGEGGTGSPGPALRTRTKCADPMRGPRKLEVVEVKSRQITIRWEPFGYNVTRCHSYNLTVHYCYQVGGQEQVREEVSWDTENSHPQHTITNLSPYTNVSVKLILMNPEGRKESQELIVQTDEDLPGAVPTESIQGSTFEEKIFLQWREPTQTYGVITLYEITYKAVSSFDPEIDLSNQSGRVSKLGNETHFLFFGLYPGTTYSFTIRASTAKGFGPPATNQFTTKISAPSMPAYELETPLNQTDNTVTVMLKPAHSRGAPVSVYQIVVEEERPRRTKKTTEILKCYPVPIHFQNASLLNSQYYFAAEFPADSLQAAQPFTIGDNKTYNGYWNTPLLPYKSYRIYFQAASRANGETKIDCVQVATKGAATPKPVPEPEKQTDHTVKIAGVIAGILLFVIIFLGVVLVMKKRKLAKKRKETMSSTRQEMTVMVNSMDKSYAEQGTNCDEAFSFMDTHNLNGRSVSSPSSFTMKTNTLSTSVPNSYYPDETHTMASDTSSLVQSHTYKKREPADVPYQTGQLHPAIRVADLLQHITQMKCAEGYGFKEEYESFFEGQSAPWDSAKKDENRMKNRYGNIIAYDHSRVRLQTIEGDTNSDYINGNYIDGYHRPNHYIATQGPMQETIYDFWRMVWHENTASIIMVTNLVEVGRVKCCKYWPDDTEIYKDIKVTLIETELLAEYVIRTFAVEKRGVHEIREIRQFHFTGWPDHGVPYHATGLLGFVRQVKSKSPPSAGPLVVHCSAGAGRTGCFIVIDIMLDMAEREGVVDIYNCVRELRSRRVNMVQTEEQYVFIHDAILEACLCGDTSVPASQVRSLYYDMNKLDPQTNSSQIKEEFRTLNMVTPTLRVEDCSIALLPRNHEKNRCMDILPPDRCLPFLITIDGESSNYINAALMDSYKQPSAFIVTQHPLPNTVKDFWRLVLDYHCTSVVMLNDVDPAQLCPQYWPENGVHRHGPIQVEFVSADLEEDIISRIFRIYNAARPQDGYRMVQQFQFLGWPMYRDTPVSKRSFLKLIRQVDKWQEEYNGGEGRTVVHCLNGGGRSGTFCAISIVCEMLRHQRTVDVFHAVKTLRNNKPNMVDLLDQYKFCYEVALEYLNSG

Cn1c(-c2cccc(NC(=O)C(=O)Nc3ccc(-c4ccsc4)cc3)c2)c(I)c2cc(C(=O)O)c(O)cc21 [11a-1, 6-hydroxy-3-iodo-1-methyl-2-(3-(2-oxo-2-((4-(thiophen-3-yl)phenyl)amino)acetamido)phenyl)-1H-indole-5-carboxylic acid]
IC50 [1]: 3300 ± 200 nM | selectivity for SHP2 over a panel of 20 mammalian PTPs [2]: over 5 fold | IC50 ([2]; pNPP substrate, pH 7.0, 25° C.): 200 ± 20 nM | IC50 [3]: 170 ± 20 nM | ligand independent growth of KITD814V bearing 32D cells ([4]; 1 μM): significant inhibition | ligand independent growth of KITD814V bearing 32D cells ([4]; 5 μM): significant inhibition | augmentation of Paxillin phosphorylation ([5]; 2 μM): 30% | effect on EGF induced Paxillin (Y118) phosphorylation ([5]; dose-dependent): dose-dependently increased | preference for SHP2 over SHP1 [6]: 7 fold | IC50 ([6]; pNPP at Km): 1440 ± 40 nM | IC50 [7]: 2300 ± 200 nM | growth of SKBR3 cells in Matrigel ([8]; 3 μM, within 24 hours): potently inhibited | ErbB2+ breast cancer cell growth in a 3D Matrigel environment ([8]; SKBR3, over 4 days, indicated concentrations): inhibited

Source: patent US9522881B2, “Hydroxyindole carboxylic acid based inhibitors for oncogenic Src homology-2 domain containing protein tyrosine phosphatase-2 (SHP2)” (Indiana University Research and Technology Corporation, priority 2013, dated 2016)
